Common to all, as to format: in vivo
The test system of assay [1] is green peach aphid (Myzus persicae). Nature of the assay: Myzus persicae test (MYZUPE), ammonium salts in combination with penetration enhancers (Example C). To be noted: for Kill rate/% after 7 days, +AS (1000 ppm) / Kill rate/% after 7 days, +RME (1000 ppm) / Kill rate/% after 7 days, +RME + AS (each 1000 ppm) / Kill rate/% after 7 days, a.i.: Table C2, emulsifier 1 part; for Kill rate/% after 7 days, +AS (1000 ppm): active substance 60 g/ha + ammonium sulfate 1000 ppm; for Kill rate/% after 7 days, +RME (1000 ppm): active substance 60 g/ha + rape oil methyl ester 1000 ppm; for Kill rate/% after 7 days, +RME + AS (each 1000 ppm): active substance 60 g/ha + rape oil methyl ester and ammonium sulfate; for Kill rate/% after 7 days, a.i.: active substance 60 g/ha; for Kill rate/% after 7 days, a.i. / Kill rate/% after 6 days, a.i.: no additive; for Kill rate/% after 6 days, +AS (1000 ppm) / Kill rate/% after 6 days, +RME (1000 ppm) / Kill rate/% after 6 days, +RME + AS (each 1000 ppm) / Kill rate/% after 6 days, a.i.: Table C1. On the procedure: (§1) Myzus persicae—Test (MYZUPE)
(§2) For the preparation of a suitable active substance preparation, 1 part by weight of active substance is mixed with the stated quantities of solvent and emulsifier and the concentrate is diluted to the desired concentration with emulsifier-containing water. When addition of ammonium salts, penetration enhancers or ammonium salts and penetration enhancers is necessary, these are in each case pipetted into the finished preparation solution in a concentration of 1000 ppm after dilution.
Paprika plants (Capsicum annuum) which are severely infested with the green peach aphid (Myzus persicae) are treated by spraying with the active substance preparation in the desired concentration.
(§3) After the desired time, the kill rate in % is determined. Here 100% means that all the animals were killed; 0% means that no animals were killed.

Assay [2] concerns cotton aphid (Aphis gossypii). The assay is described as follows: Aphis gossypii test (APHIGO), ammonium salts in combination with penetration enhancers (Example D). To be noted: for Kill rate/% after 7 days, +AS (1000 ppm) / Kill rate/% after 7 days, +RME (1000 ppm) / Kill rate/% after 7 days, +RME + AS (each 1000 ppm) / Kill rate/% after 7 days, a.i.: Table D2, emulsifier 1 part; for Kill rate/% after 7 days, +AS (1000 ppm): active substance 2.4 g/ha + ammonium sulfate 1000 ppm; for Kill rate/% after 7 days, +RME (1000 ppm): active substance 2.4 g/ha + rape oil methyl ester 1000 ppm; for Kill rate/% after 7 days, +RME + AS (each 1000 ppm): active substance 2.4 g/ha + rape oil methyl ester and ammonium sulfate; for Kill rate/% after 7 days, a.i.: active substance 2.4 g/ha; for Kill rate/% after 7 days, a.i. / Kill rate/% after 6 days, a.i.: no additive; for Kill rate/% after 6 days, +AS (1000 ppm) / Kill rate/% after 6 days, +RME (1000 ppm) / Kill rate/% after 6 days, +RME + AS (each 1000 ppm) / Kill rate/% after 6 days, a.i.: Table D1. As for the experimental part: (§4) Aphis gossypii-Test (APHIGO)
as §2
(§5) Cotton leaves (Gossypium hirsutum) which are severely infested with the cotton aphid (Aphis gossypii) are sprayed with an active substance preparation with the desired concentration.
(§6) After the desired time, the kill rate in % is determined. Here 100% means that all the aphids were killed; 0% means that no aphids were killed.

Assay [3] deals with green peach aphid (Myzus persicae). The assay is described as follows: Myzus persicae test (MYZUPE), activity increase due to ammonium salts (Example A). As to conditions: sprayed paprika plants; for Kill rate/% after 6 days, a.i.: no additive. On the procedure: as §1
(§7) For the preparation of a suitable active substance preparation, 1 part by weight of active substance is mixed with the stated quantities of solvent and emulsifier and the concentrate is diluted to the desired concentration with emulsifier-containing water. When addition of ammonium salts is necessary, these are in each case pipetted into the finished preparation solution in a concentration of 1000 ppm after dilution.
Paprika plants (Capsicum annuum) which are severely infested by the green peach aphid (Myzus persicae) are treated by spraying with the active substance preparation in the desired concentration.
as §3

For assay [4], the system named is cotton aphid (Aphis gossypii). The assay is described as follows: Aphis gossypii test (APHIGO), activity increase due to ammonium salts (Example B). To be noted: sprayed cotton leaves; for Kill rate/% after 6 days, a.i.: no additive. As for the experimental part: as §4, §7, §5, §6
Assay [5] concerns common spider mite (Tetranychus urticae). The assay is described as follows: Tetranychus test (OP-resistant), ammonium salts in combination with penetration enhancers (Example F). As to conditions: for Kill rate/% after 6 days, a.i.: no additive. As for the experimental part:
(§8) Tetranychus-Test (OP-Resistant)
as §2
(§9) Bean plants (Phaseolus vulgaris) which are severely infested by all stages of the common spider mite (Tetranychus urticae) are treated by spraying with the active substance preparation in the desired concentration.
(§10) After the desired time, the kill rate in % is determined. here 100% means that all the spider mites were killed; 0% means that no spider mites were killed.

Assay [6] shares this test system. The assay is described as follows: Tetranychus test (OP-resistant), activity increase due to ammonium salts (Example E). To be noted: sprayed bean plants; for Kill rate/% after 6 days, +AS (1000 ppm): active substance 20 ppm + ammonium sulfate 1000 ppm; for Kill rate/% after 6 days, a.i.: active substance 20 ppm, no additive. As for the experimental part: as §8, §7, §9, §10

The mark [7] stands for this setting: active substance 20 ppm + ammonium sulfate 1000 ppm.
Where [8] appears, read: active substance 4 ppm + ammonium sulfate 1000 ppm.
Where [9] appears, read: active substance 20 ppm + rape oil methyl ester 1000 ppm.
The mark [10] stands for this setting: active substance 20 ppm + rape oil methyl ester and ammonium sulfate.
Where [11] appears, read: active substance 0.8 ppm + ammonium sulfate 1000 ppm.
The mark [12] stands for this setting: active substance 0.8 ppm + rape oil methyl ester 1000 ppm.
The mark [13] stands for this setting: active substance 0.8 ppm + rape oil methyl ester and ammonium sulfate.
Where [14] appears, read: active substance 4 ppm + rape oil methyl ester 1000 ppm.
The mark [15] stands for this setting: active substance 4 ppm + rape oil methyl ester and ammonium sulfate.

The record followed here is patent US8604068B2, “Insecticidal compositions of 2-cyanobenzene sulfonamide compounds and isomeric forms thereof having improved effect” (Bayer CropScience AG, priority 2007, dated 2013).

For `COc1cccc(S(=O)(=O)NCc2ccccc2)c1C#N` [Example 40], in assay [1], the “Kill rate/% after 7 days, +AS (1000 ppm)” value was determined as 0%; the “Kill rate/% after 7 days, +RME (1000 ppm)” value is 40%; the “Kill rate/% after 7 days, +RME + AS (each 1000 ppm)” value came to 50%; the “Kill rate/% after 7 days, a.i.” value is 0%.
`COc1cccc(S(=O)(=O)NC(C)C)c1C#N` [Example 41]: in assay [2], the “Kill rate/% after 7 days, +AS (1000 ppm)” value was determined as 80%; the “Kill rate/% after 7 days, +RME (1000 ppm)” value is on record as 10%; the “Kill rate/% after 7 days, +RME + AS (each 1000 ppm)” value is listed as 93%; the “Kill rate/% after 7 days, a.i.” value worked out at 50%.
Regarding `C#CCN1C(=N)c2c(OC)cccc2S1(=O)=O` [Example 42-A], the “Kill rate/% after 6 days, +AS (1000 ppm)” value in assay [3] (setting [7]) came to 45%; in assay [4] (setting [8]), 55%; in assay [4] (setting [7]), 98%; in assay [1] (setting [7]), 45%; in assay [5] (setting [11]), 30%; in assay [5] (setting [8]), 50%. Besides, the “Kill rate/% after 6 days, a.i.” value in assay [3] (active substance 20 ppm) was 0%; in assay [4] (active substance 4 ppm) it was 15%; in assay [4] (active substance 20 ppm) it was 30%; in assay [1] (active substance 20 ppm), 0%; in assay [5] (active substance 0.8 ppm), 50%; in assay [5] (active substance 4 ppm), 70%. Further, the entries for the “Kill rate/% after 6 days, +RME (1000 ppm)” value in assay [1] (setting [9]), in assay [5] (setting [12]) and in assay [5] (setting [14]) were 90%, 45% and 75%, respectively. The entries for the “Kill rate/% after 6 days, +RME + AS (each 1000 ppm)” value in assay [1] (setting [10]), in assay [5] (setting [13]) and in assay [5] (setting [15]) were 98%, 80% and 95%, respectively.
`C#CCNS(=O)(=O)c1cccc(OC)c1C#N` [Example 42]: the entries for the “Kill rate/% after 6 days, +AS (1000 ppm)” value in assay [3] (setting [7]), in assay [1] (setting [7]) and in assay [1] (active substance 100 ppm + ammonium sulfate 1000 ppm) were 20%, 20% and 80%, respectively. The entries for the “Kill rate/% after 6 days, a.i.” value in assay [3] (active substance 20 ppm), in assay [1] (active substance 20 ppm) and in assay [1] (active substance 100 ppm) were 5%, 5% and 75%, respectively. Moreover, the “Kill rate/% after 6 days, +RME (1000 ppm)” value worked out at 25% in assay [1] (setting [9]) and 99% in assay [1] (active substance 100 ppm + rape oil methyl ester 1000 ppm). Moreover, the “Kill rate/% after 6 days, +RME + AS (each 1000 ppm)” value came to 70% in assay [1] (setting [10]); 100% in assay [1] (active substance 100 ppm + rape oil methyl ester and ammonium sulfate).
On to `C=CCNS(=O)(=O)c1cccc(OC)c1C#N` [Example 44], for which the “Kill rate/% after 6 days, +AS (1000 ppm)” value in assay [4] (setting [8]) is reported as 25%; in assay [1] (setting [8]) it was 15%; in assay [1] (setting [7]), 70%; in assay [2] (setting [8]), 25%; in assay [6] it was 70%. Further, the “Kill rate/% after 6 days, a.i.” value was determined as 5% in assay [4] (active substance 4 ppm); 10% in assay [1] (active substance 4 ppm); 85% in assay [1] (active substance 20 ppm); 5% in assay [2] (active substance 4 ppm); 40% in assay [6]. Besides, the figures for the “Kill rate/% after 6 days, +RME (1000 ppm)” value in assay [1] (setting [14]), in assay [1] (setting [9]) and in assay [2] (setting [14]) were 20%, 85% and 45%, respectively. For the same compound, the “Kill rate/% after 6 days, +RME + AS (each 1000 ppm)” value in assay [1] (setting [15]) is given as 30%; in assay [1] (setting [10]) it was 98%; in assay [2] (setting [15]), 55%.
Turning to `COc1cccc2c1C(N)=NS2(=O)=O` [Example 45-B], the “Kill rate/% after 6 days, +AS (1000 ppm)” value in assay [3] (setting [8]) worked out at 60%. Also, the “Kill rate/% after 6 days, a.i.” value in assay [3] (active substance 4 ppm) stood at 35%.
As to `COc1cccc(S(=O)(=O)NC2CC2)c1C#N` [Example 83], in assay [1], the “Kill rate/% after 7 days, +AS (1000 ppm)” value worked out at 0%; the “Kill rate/% after 7 days, +RME (1000 ppm)” value is 10%; the “Kill rate/% after 7 days, +RME + AS (each 1000 ppm)” value worked out at 75%; the “Kill rate/% after 7 days, a.i.” value was determined as 0%. Moreover, in assay [2], the “Kill rate/% after 7 days, +AS (1000 ppm)” value was found to be 55%; the “Kill rate/% after 7 days, +RME (1000 ppm)” value was determined as 30%; the “Kill rate/% after 7 days, +RME + AS (each 1000 ppm)” value was 85%; the “Kill rate/% after 7 days, a.i.” value stood at 10%.
In the case of `COc1cccc(S(=O)(=O)N(C)C)c1C#N` [Example 215], in assay [1], the “Kill rate/% after 7 days, +AS (1000 ppm)” value came to 20%; the “Kill rate/% after 7 days, +RME (1000 ppm)” value is recorded as 40%; the “Kill rate/% after 7 days, +RME + AS (each 1000 ppm)” value amounted to 75%; the “Kill rate/% after 7 days, a.i.” value is on record as 0%.
Take `C=CCN(C)S(=O)(=O)c1cccc(OC)c1C#N` [Example 225]: the “Kill rate/% after 6 days, +AS (1000 ppm)” value in assay [4] (setting [7]) is on record as 75%; in assay [1] (setting [8]) it was 0%; in assay [6], 80%. The entries for the “Kill rate/% after 6 days, a.i.” value in assay [4] (active substance 20 ppm), in assay [1] (active substance 4 ppm) and in assay [6] were 35%, 0% and 20%, respectively. Also, in assay [1] (setting [14]), the “Kill rate/% after 6 days, +RME (1000 ppm)” value is reported as 5%. Besides, in assay [1] (setting [15]), the “Kill rate/% after 6 days, +RME + AS (each 1000 ppm)” value came to 35%.
Take `N#Cc1ccccc1S(N)(=O)=O` [Example 226]: the “Kill rate/% after 6 days, +AS (1000 ppm)” value in assay [1] (setting [7]) was 10%; in assay [2] (setting [11]), 0%; in assay [2] (setting [8]) it was 20%; in assay [5] (setting [7]) it was 70%. Also, the “Kill rate/% after 6 days, +RME (1000 ppm)” value in assay [1] (setting [9]) is 25%; in assay [2] (setting [12]) it was 20%; in assay [2] (setting [14]), 35%; in assay [5] (setting [9]) it was 60%. The “Kill rate/% after 6 days, +RME + AS (each 1000 ppm)” value came to 50% in assay [1] (setting [10]), 35% in assay [2] (setting [13]), 55% in assay [2] (setting [15]) and 90% in assay [5] (setting [10]). Besides, the “Kill rate/% after 6 days, a.i.” value in assay [1] (active substance 20 ppm) was found to be 10%; in assay [2] (active substance 0.8 ppm), 0%; in assay [2] (active substance 4 ppm) it was 20%; in assay [5] (active substance 20 ppm) it was 50%.
